# PubChem BioAssay (NCI)
#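 In this assay, cells in 96-well plates receive the compound at five concentrations for 48 hours. Endpoints are linearly interpolated between the surrounding concentrations. At the GI50, growth is halved. TGI is the concentration that stops growth completely.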
# Legend:
# Test in all cases: DTP human tumour cell line panel, 48 h
# [1] = tested on: HCT-116 colon
# [2] = tested on: SK-MEL-2 melanoma
# [3] = tested on: T-47D breast
# [4] = tested on: HL-60(TB) leukemia
# [5] = tested on: SF-268 CNS
# [6] = tested on: SF-539 CNS
# [7] = tested on: RPMI-8226 leukemia
# [8] = tested on: HOP-92 NSCLC
# [9] = tested on: MDA-MB-231 breast
# [10] = tested on: NCI/ADR-RES ovarian
# [11] = tested on: SK-MEL-5 melanoma
# [12] = tested on: BT-549 breast
# [13] = tested on: HT29 colon
# [14] = tested on: TK-10 renal
# [15] = tested on: M14 melanoma
# [16] = tested on: SNB-75 CNS
# [17] = tested on: 786-0 renal
# [18] = tested on: IGROV1 ovarian
# [19] = tested on: NCI-H226 lung
# [20] = tested on: SR leukemia
# [21] = tested on: CAKI-1 renal
# [22] = tested on: HCT-15 colon
# [23] = tested on: OVCAR-3 ovarian
# [24] = tested on: MOLT-4 leukemia
# [25] = tested on: COLO 205 colon
# [26] = tested on: NCI-H23 lung
# [27] = tested on: HOP-62 NSCLC
structure (smiles),measurement,setting,value
Nc1ccn(C=C=CCO)c(=O)n1,GI50,[1],> 1000 µM
same,TGI,[1],> 1000 µM
same,GI50,[2],> 1000 µM
same,TGI,[2],> 1000 µM
same,GI50,[3],> 1000 µM
same,TGI,[3],> 1000 µM
same,TGI,[4],435 µM
same,GI50,[5],> 1000 µM
same,TGI,[5],> 1000 µM
same,GI50,[6],> 1000 µM
same,TGI,[6],> 1000 µM
same,TGI,[7],> 1000 µM
same,GI50,[8],> 1000 µM
same,TGI,[8],> 1000 µM
same,GI50,[9],> 1000 µM
same,TGI,[9],> 1000 µM
same,GI50,[10],> 1000 µM
same,TGI,[10],> 1000 µM
same,GI50,[11],> 1000 µM
same,TGI,[11],> 1000 µM
same,GI50,[12],> 1000 µM
same,TGI,[12],> 1000 µM
same,GI50,[13],> 1000 µM
same,TGI,[13],> 1000 µM
same,GI50,[14],> 1000 µM
same,TGI,[14],> 1000 µM
same,GI50,[15],> 1000 µM
same,TGI,[15],> 1000 µM
same,GI50,[16],> 1000 µM
same,TGI,[16],> 1000 µM
same,GI50,[17],> 1000 µM
same,TGI,[17],> 1000 µM
same,GI50,[18],> 1000 µM
same,TGI,[18],> 1000 µM
same,GI50,[19],> 1000 µM
same,TGI,[19],> 1000 µM
same,TGI,[20],> 1000 µM
same,GI50,[21],> 1000 µM
same,TGI,[21],> 1000 µM
same,GI50,[22],> 1000 µM
same,TGI,[22],> 1000 µM
same,GI50,[23],> 1000 µM
same,TGI,[23],> 1000 µM
same,GI50,[24],38.8 µM
same,TGI,[24],> 1000 µM
same,GI50,[25],> 1000 µM
same,TGI,[25],> 1000 µM
same,GI50,[26],> 1000 µM
same,TGI,[26],> 1000 µM
same,GI50,[27],> 1000 µM
same,TGI,[27],> 1000 µM
